Here are results for two compounds from ChEMBL document CHEMBL5346978, “Exploration of Tetrahydroisoquinoline- and Benzo[c]azepine-Based Sphingosine 1-Phosphate Receptor 1 Agonists for the Treatment of Multiple Sclerosis” (J Med Chem, 2023).

One may read the EC50 as the concentration that produces a half-maximal response. The term Tmax denotes the time at which the peak concentration occurs. As usually defined, the Cmax is the maximum level reached in the sampled fluid or tissue. A word on the half-life: it is the time in which the quantity being followed falls by half. The AUC(0-t) is exposure summed from dosing to a finite time, without extrapolation to infinity. High values mean more exposure, low ones less exposure. The term clearance denotes a measure of how efficiently the substance is removed, as volume per time. A higher clearance goes with a high capacity for elimination. The MRT inf is a mean duration of stay, worked out from the concentration-time curve. The term bioavailability denotes the share of a dose that reaches the circulation, judged against a reference dose that is usually intravenous. The low end stands for little systemic uptake, the high end for much systemic uptake.

Structures are written as SMILES. Activity calls are given as the source filed them. The rule behind the calls is not given here.

Data set [1] can be described thus: Cardiotoxicity in human iPSC-derived cardiomyocyte assessed as effect on intracellular cardiomyocyte contraction at 20 uM measured for 2 mins by FLIPR analysis. Type of data set: toxicity, cell-based. The following applies: cardiac muscle cell.
In data set [2] the target is T1, Sphingosine 1-phosphate receptor 1 (Homo sapiens, UniProt P21453). As to the kind of experiment: Agonist activity at S1P1 (unknown origin) expressed in human HEK293/Galpha15 cells assessed as Ca2+ activation at 1 uM measured for 2 hrs by FLIPR analysis relative to control. The following applies: filed as agonist. Type of data set: functional, cell-based.
In data set [3] the target is T1, Sphingosine 1-phosphate receptor 1. As to the kind of experiment: Agonist activity at S1P1 (unknown origin) expressed in human HEK293/Galpha15 cells assessed as Ca2+ activation measured for 2 hrs by FLIPR analysis. Type of data set: functional, cell-based.
Data set [4] has the same target. Put plainly: Agonist activity at S1P1 (unknown origin) expressed in PathHunter CHO-K1 EDG1 beta-arrestin cells assessed as beta-arrestin2 recruitment at 1 uM incubated for 90 mins by chemiluminescence based assay relative to control. The following applies: filed as agonist. It counts as functional, cell-based. (In general: Arrestin recruitment assays detect the binding of arrestin to an activated receptor.)

Data set [5] shares this target. Put plainly: Agonist activity at S1P1 (unknown origin) expressed in PathHunter CHO-K1 EDG1 beta-arrestin cells assessed as beta-arrestin2 recruitment incubated for 90 mins by chemiluminescence based assay. Type of data set: functional, cell-based.
The nature of data set [6]: Microsomal stability in human liver microsomes assessed as parent compound remaining preincubated for 5 mins followed by NADPH addition measured after 30 mins by LC-MS/MS analysis. The following applies: time 35 min, read-out: Stability. It counts as ADME, Microsome. (Microsomes from liver hold many membrane-bound enzymes, among them those of drug oxidation.)
Data set [7] in a line: Microsomal stability in rat liver microsomes assessed as parent compound remaining preincubated for 5 mins followed by NADPH addition measured after 30 mins by LC-MS/MS analysis. Type of data set: ADME, Microsome. The following applies: time 35 min, read-out: Stability.
Data set [8] in a line: Microsomal stability in mouse liver microsomes assessed as parent compound remaining preincubated for 5 mins followed by NADPH addition measured after 30 mins by LC-MS/MS analysis. It counts as ADME, Microsome. The following applies: time 35 min, read-out: Stability.
Another data set addresses T2, CYP1A2 (Homo sapiens, UniProt P05177).
T2 sequence (P05177 whole entry): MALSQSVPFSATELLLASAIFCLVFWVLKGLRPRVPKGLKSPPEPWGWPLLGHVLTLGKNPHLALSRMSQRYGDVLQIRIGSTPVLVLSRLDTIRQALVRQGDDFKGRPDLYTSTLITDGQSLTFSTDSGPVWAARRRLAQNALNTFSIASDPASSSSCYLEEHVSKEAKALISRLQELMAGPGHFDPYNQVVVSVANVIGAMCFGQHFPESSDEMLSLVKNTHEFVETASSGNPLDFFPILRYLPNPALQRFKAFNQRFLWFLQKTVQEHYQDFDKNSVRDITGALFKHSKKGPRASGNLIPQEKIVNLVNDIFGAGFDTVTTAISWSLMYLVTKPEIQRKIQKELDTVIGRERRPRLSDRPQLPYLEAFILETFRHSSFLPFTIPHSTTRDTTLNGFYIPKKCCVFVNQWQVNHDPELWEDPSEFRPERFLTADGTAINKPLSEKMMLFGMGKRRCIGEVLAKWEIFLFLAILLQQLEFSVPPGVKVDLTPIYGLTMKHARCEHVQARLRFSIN
As to the kind of experiment: Inhibition of CYP1A2 in human liver microsomes using phenacetin as substrate assessed as residual activity at 10 uM preincubated for 5 mins followed by substrate addition and measured after 15 mins in presence of NADPH by LC-MS/MS analysis. Type of data set: ADME, Microsome. The following applies: probe phenacetin, time 20 min, read-out: Activity.

Another data set has as its target CYP2C9 (Homo sapiens, UniProt P11712). Put plainly: Inhibition of CYP2C9 in human liver microsomes using diclofenac as substrate assessed as residual activity at 10 uM preincubated for 5 mins followed by substrate addition and measured after 15 mins in presence of NADPH by LC-MS/MS analysis. The following applies: probe diclofenac, time 20 min, read-out: Activity. Type of data set: ADME, Microsome.

Another data set addresses CYP2D6 (Homo sapiens, UniProt P10635). Put plainly: Inhibition of CYP2D6 in human liver microsomes using dextromethorphan as substrate assessed as residual activity at 10 uM preincubated for 5 mins followed by substrate addition and measured after 15 mins in presence of NADPH by LC-MS/MS analysis. It counts as ADME, Microsome. The following applies: probe dextromethorphan, time 20 min, read-out: Activity.

For another data set, the target named is CYP3A4 (Homo sapiens, UniProt P08684). Put plainly: Inhibition of CYP3A4 in human liver microsomes using midazolam as substrate assessed as residual activity at 10 uM preincubated for 5 mins followed by substrate addition and measured after 15 mins in presence of NADPH by LC-MS/MS analysis. Type of data set: ADME, Microsome. The following applies: probe midazolam, time 20 min, read-out: Activity.

Data set [9] in a line: Tmax in ICR mouse at 10 mg/kg, po measured at 0.25 to 12 hrs by LC-MS/MS analysis. It counts as ADME, organism-based. The following applies: in vivo, time 0.25-12 hrs.
Data set [10] can be described thus: Cmax in ICR mouse at 10 mg/kg, po measured at 0.25 to 12 hrs by LC-MS/MS analysis. It counts as ADME, organism-based. Set-up: time upper 12 hrs, dose 10 mg/kg, time lower 0.25 hrs, route po. The following applies: in vivo.
The nature of data set [11]: Half life in ICR mouse at 1 mg/kg, iv measured at 0.25 to 12 hrs by LC-MS/MS analysis. Type of data set: ADME, organism-based. The following applies: in vivo, time 0.25-12 hrs.
Data set [12] is described as follows: Half life in ICR mouse at 10 mg/kg, po measured at 0.25 to 12 hrs by LC-MS/MS analysis. The following applies: in vivo, time 0.25-12 hrs. Type of data set: ADME, organism-based.
Data set [13] is described as follows: AUClast in ICR mouse at 1 mg/kg, iv measured at 0.25 to 12 hrs by LC-MS/MS analysis. It counts as ADME, organism-based. Set-up: time lower 0.25 hrs, dose 1 mg/kg, time upper 12 hrs, route iv. The following applies: in vivo.
The nature of data set [14]: AUClast in ICR mouse at 10 mg/kg, po measured at 0.25 to 12 hrs by LC-MS/MS analysis. It counts as ADME, organism-based. Also noted: time 0.25-12 hrs, dose 10 mg/kg, route po. The following applies: in vivo.
The nature of data set [15]: Observed clearance in ICR mouse at 1 mg/kg, iv measured at 0.25 to 12 hrs by LC-MS/MS analysis. The following applies: in vivo, time 0.25-12 hrs. Type of data set: ADME, organism-based.
Data set [16] can be described thus: Observed MRT (infinitive) in ICR mouse at 10 mg/kg, po measured at 0.25 to 12 hrs by LC-MS/MS analysis. The following applies: in vivo, time 0.25-12 hrs. It counts as ADME, organism-based.
The nature of data set [17]: Observed MRT (infinitive) in ICR mouse at 1 mg/kg, iv measured at 0.25 to 12 hrs by LC-MS/MS analysis. Type of data set: ADME, organism-based. The following applies: in vivo, time 0.25-12 hrs.
Data set [18] can be described thus: Observed volume of distribution at steady state in ICR mouse at 1 mg/kg, iv measured at 0.25 to 12 hrs by LC-MS/MS analysis. The following applies: in vivo, time 0.25-12 hrs, read-out: Vdss. It counts as ADME, organism-based.
A short description of data set [19]: Oral bioavailability in ICR mouse at 10 mg/kg measured at 0.25 to 12 hrs by LC-MS/MS analysis. It counts as ADME, organism-based. The following applies: in vivo, time 0.25-12 hrs.
The subject of another data set is Mus musculus. Put plainly: In vivo agonist activity at S1P1 in mouse assessed as reduction in peripheral lymphocyte count at 10 mg/kg, po measured at 3 hrs. It counts as functional, organism-based.

T1 sequence (P21453 whole entry): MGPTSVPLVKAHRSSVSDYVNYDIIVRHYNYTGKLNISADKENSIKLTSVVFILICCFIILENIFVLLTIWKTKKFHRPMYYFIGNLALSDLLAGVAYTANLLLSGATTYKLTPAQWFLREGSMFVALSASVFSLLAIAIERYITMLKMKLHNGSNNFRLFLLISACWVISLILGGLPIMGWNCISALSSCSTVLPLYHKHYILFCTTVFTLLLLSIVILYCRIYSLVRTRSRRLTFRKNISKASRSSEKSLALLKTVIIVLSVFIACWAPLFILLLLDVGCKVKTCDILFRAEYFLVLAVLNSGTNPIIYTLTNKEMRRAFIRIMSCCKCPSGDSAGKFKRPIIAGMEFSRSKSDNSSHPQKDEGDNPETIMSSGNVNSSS
Sequence of CYP2D6 (P10635 whole entry): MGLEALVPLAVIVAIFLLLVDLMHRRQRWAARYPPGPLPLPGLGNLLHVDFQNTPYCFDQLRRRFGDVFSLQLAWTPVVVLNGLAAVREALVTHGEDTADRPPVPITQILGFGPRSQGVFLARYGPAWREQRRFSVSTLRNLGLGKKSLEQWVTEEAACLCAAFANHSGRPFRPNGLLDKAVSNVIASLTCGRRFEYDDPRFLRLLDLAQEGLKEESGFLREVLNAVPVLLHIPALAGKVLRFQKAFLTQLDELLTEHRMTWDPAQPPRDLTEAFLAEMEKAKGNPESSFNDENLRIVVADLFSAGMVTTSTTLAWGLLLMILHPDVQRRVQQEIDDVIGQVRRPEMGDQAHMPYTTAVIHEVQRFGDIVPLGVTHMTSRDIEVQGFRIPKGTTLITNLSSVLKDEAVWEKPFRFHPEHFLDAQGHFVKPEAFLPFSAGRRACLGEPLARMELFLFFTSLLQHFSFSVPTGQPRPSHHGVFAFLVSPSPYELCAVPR
Sequence of CYP2C9 (P11712 whole entry): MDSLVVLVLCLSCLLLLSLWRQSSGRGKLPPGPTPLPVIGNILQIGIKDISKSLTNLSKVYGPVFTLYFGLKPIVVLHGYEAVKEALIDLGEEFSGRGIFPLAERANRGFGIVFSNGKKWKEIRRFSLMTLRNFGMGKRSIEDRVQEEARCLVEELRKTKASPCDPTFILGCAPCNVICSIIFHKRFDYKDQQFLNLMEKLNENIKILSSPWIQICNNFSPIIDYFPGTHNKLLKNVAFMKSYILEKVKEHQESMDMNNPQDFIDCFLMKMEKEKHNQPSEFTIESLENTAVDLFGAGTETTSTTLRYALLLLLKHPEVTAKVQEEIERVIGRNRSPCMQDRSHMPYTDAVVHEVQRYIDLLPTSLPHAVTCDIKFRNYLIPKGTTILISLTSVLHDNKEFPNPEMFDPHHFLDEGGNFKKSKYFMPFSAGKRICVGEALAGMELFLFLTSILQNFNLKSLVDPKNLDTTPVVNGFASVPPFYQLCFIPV
Sequence of CYP3A4 (P08684 whole entry): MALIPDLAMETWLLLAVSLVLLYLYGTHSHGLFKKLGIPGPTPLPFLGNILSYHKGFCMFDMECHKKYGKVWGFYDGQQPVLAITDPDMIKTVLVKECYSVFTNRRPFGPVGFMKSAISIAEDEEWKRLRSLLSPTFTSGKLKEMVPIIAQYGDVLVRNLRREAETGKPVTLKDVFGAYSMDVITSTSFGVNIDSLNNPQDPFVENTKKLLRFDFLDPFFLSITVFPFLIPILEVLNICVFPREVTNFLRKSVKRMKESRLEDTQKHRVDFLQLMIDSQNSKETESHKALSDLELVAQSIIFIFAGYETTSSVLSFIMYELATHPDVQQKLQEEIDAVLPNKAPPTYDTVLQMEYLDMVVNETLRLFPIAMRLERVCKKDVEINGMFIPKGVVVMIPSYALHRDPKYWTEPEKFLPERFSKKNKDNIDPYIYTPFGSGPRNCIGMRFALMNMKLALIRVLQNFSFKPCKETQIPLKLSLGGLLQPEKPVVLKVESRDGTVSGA

For the compound `CC(C)NCC(O)c1ccc(NS(C)(=O)=O)cc1` (centres undefined) [SOTALOL], the Activity entry in [1] is recorded as “Non-Toxic”.
Turning to `CC(C)Oc1ccc(COc2ccc3c(c2)CCN(S(=O)(=O)CCC(=O)O)C3)cc1C#N`, the Activity turned out to be 100% in data set [2] and 125% in data set [4]. Further, the EC50 amounted to 14 nM in data set [3] and 50 nM in data set [5]. Further, the remaining at 0.5 h came out at 90.2% in data set [6], 93.8% in data set [7] and 100% in [8]. The activity at 0.25 h, 10 µM at CYP1A2 worked out at 80.4%; at CYP2C9, 75.4%; at CYP2D6, 91.9%; on CYP3A4, 87.5%. Moreover, the Tmax in data set [9] turned out to be 0.5 h. This compound displayed a maximum concentration (Cmax) in data set [10] of 2290 ng/mL. Also, the results for the half-life in data set [11] and in data set [12] were 2.4 h and 1.3 h, respectively. Moreover, the AUC(0-t) came to 925 ng·h/mL in [13] and 4290 ng·h/mL in data set [14]. Further, in data set [15], the clearance turned out to be 18.2 mL/min/kg. In addition, the MRT inf in data set [16] came to 1.9 h; in [17], 1 h. Further, the Vd in [18] stood at 1.1 L/kg. Further, in data set [19], the bioavailability was determined as 46.4%. Besides, in the data set on Mus musculus, the Activity entry is “Active”.
